Where a name gives a salt, the structure may show the parent alone.

The subject of one series is pNL4-3 SP1-V7A. Nature of the series: CA-SP1 accumulation assay, SP1-V7A derivative. The class given is cell-based, HIV-1. The conditions noted are these: HeLa or 293T cells; for % CA-SP1 Accumulation 10 nM SP1 V7A: 10 nM compound. The gist of the method:
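HeLa or 293T cells transfected with proviral clone, maturation inhibitors present through transfection and labeling; at 24 h, [^35S]Met/Cys labeling 2-3 h. Virions pelleted by ultracentrifugation, lysed, CA and CA-SP1 resolved by SDS-PAGE and quantified by phosphorimaging.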

Series [1] is described as follows: Cytotoxicity assay CellTitre-Blue, HUT-R5. The class given is cell-based. The conditions noted are these: human, HUT-R5 cells, read-out: Cytotoxicity CC50 HUTR5. As to the method: Cytotoxicity assays. Cytotoxicity assays were performed using the CellTitre-Blue Cell Viability Assay kit (Promega, USA) as per manufacturer's recommendations. HEK-293T and HUT-R5 cell lines were maintained in the presence of serial dilutions of the compounds for 4 days and treated with CellTitre-Blue reagent for 4 h at 37° C. The fluorescent signals were recorded at 530/25excision and 590/35emission using BioTek microplate reader. The 50% cytotoxicity concentrations (CC50s) were determined as the compound concentrations that reduced the fluorescent signals to 50% relative to DMSO only controls.

The test system of a further series is HIV-1 clade C K3016. Nature of the series: Viral infectivity assay in TZM-bl cells (luciferase), K3016. The format is cell-based. The note with it: DMSO = 100. From the text:
Plasmids, tissue culture and transfections. HIV-1 clade B molecular clone NL4-3 and cade C clones K3016, ZM247 were obtained from Dr. Christina Ochsenbauer, University of Alabama, USA. Both K3016 and ZM247 were constructed using viral strains from South Africa. The HIV-1 clade C molecular clone pindieC1 was obtained from Dr. Uday Ranga, JNCASR, India. This clone was constructed using an HIV strain from India. HEK-293T and TZM-bl cells were propagated in Dulbecco's modified Eagle's medium (DM4EM) containing 10% fetal bovine serum (FBS). HUT-R5 cells were propagated in RPM 1640 medium supplemented with 10% FBS. For transfections, HEK-293T cells were grown in six well plates to about 80% confluency. Cells were transfected using Lipofectamine 2000 (invitrogen, USA) following manufacturer's recommendations. For viral replication assays, HUT-R5 T-cells were transfected using DEAE dextran as described in Waheed, A. A., Ono, A., and Freed, E. O.; Methods for the study of HIV-1 assembly; Methods Mol. Biol. Clifton N.J. 485, 163-184 (2009).
Preparation of viral stocks. Virus stocks were prepared by transfecting HEK-293T cells with HIV-1 DNAs (3 μg). 24 h post-transfection, the culture medium was replaced with fresh DMEM and incubated for another 2 h. Compounds tested were maintained in the culture throughout transfection. The culture supernatant was centrifuged at 845×g for 3 min to remove cellular debris. The clarified supernatants were filtered (pore size 0.45 µm filter disc) to remove residual cellular contaminants. For determination of viral infectivity, the un-concentrated virus was used to infect TZM-bl cells. For the CA-SP1 accumulation assay, the virus was pelleted by ultra-centrifugation at 210,100×g for 1 h at 4° C. using SW41Ti rotor (Beckman Coulter, USA).
Viral infectivity assays. The virus stocks were normalized for p24 antigen using an HIV-1 p24 Antigen Capture kit (ABL, USA). Equal amounts of virus were used to infect TZM-bl cells (5×10^4/well) in the presence of 20 μg DEAE-dextran per mL in 24 well plate. Single-round infectivity assays were performed as previously described in Checkley, M. A. et al; Reevaluation of the Requirement for TIP47 in Human Immunodeficiency Virus Type 1 Envelope Glycoprotein Incorporation; J. Virol. 87, 3561-3570 (2013). The luciferase activity in the cell lysates was measured using the Steady-Glo luciferase assay kit (Promega, USA) following manufacturer's recommendations.

For series [2], the system named is HIV-1 clade C K3016 in HUT-R5 cells. Nature of the series: Antiviral assay in HUT-R5 cells (p24), K3016. The note with it: Human immunodeficiency virus 1, 192 h, 8 days, mean ± SEM, 2 experiments. The format is cell-based. As to the method:
Antiviral assays. HUT-R5 cells were infected with normalized HIV-1 clade C K3016 virus stocks at 37° C. for 1 h. Cells were then maintained for 8 days in the presence of serial dilutions of the compounds assayed. After 8 days, the HIV-1 p24 concentration in the virus supernatants was measured to monitor virus replication. The 50% inhibitory concentrations (IC50s) were determined that reduced HIV-1 p24 levels to 50% relative to DMSO-only controls.

With `C=C(C)[C@@H]1CC[C@]2(CCNCCN3CCS(=O)(=O)CC3)CC[C@]3(C)[C@H](CC[C@@H]4[C@@]5(C)CC[C@H](OC(=O)CC(C)(C)C(=O)O)C(C)(C)[C@@H]5CC[C@]43C)[C@@H]12` [Compound 51ee, (3β)-17-[[[2-[2-(1,1-Dioxothiomorpholin-4-yl)]Ethyl]Amino]Ethyl]-28-norlup-20(29)-en-3-ol, 3-(1-Hydrogen 2,2-Dimethylbutanedioate)], the “% CA-SP1 Accumulation 10 nM SP1 V7A” value in the series with pNL4-3 SP1-V7A amounted to 35.1%. The CC50 at 4 days in series [1] is more than 500 nM. In the series with HIV-1 clade C K3016, the “% Relative Infectivity K3016 10 nM” value is 32.0% and the “% Relative Infectivity K3016 100 nM” value is reported as 7.8%. The compound also came in with a half-maximal inhibitory concentration (IC50) in series [2] of 3.6 ± 0.22 nM.

As for `C=C(C)[C@@H]1CC[C@]2(CCNCCN3CCN(S(C)(=O)=O)CC3)CC[C@]3(C)[C@H](CC[C@@H]4[C@@]5(C)CC[C@H](OC(=O)CC(C)(C)C(=O)O)C(C)(C)[C@@H]5CC[C@]43C)[C@@H]12` [Compound 51ff, (3β)-17-[2-[[2-[4-(Methylsulfonyl)piperazin-1-yl]ethyl]amino]ethyl]-28-norlup-20(29)-en-3-ol, 3-(1-Hydrogen 2,2-Dimethylbutanedioate)], the “% CA-SP1 Accumulation 10 nM SP1 V7A” value in the series with pNL4-3 SP1-V7A was 31.1 (3) %. Moreover, the 50% cytotoxic concentration (CC50) at 4 days in series [1] was more than 500 nM. In the series on HIV-1 clade C K3016, the “% Relative Infectivity K3016 10 nM” value is 43.3% and the “% Relative Infectivity K3016 100 nM” value came out at 24.4%. In addition, the 50% inhibitory concentration (IC50) in series [2] came to 2.27 ± 0.56 nM.

In the case of `C=C(C)[C@@H]1CC[C@]2(CCNC3CCN(CCO)CC3)CC[C@]3(C)[C@H](CC[C@@H]4[C@@]5(C)CC[C@H](OC(=O)CC(C)(C)CC(=O)O)C(C)(C)[C@@H]5CC[C@]43C)[C@@H]12` [Compound 51f, (3β)-17-[2-[[1-(2-Hydroxyethyl)piperidin-4-yl]amino]ethyl]-28-norlup-20(29)-en-3-ol, 3-(Hydrogen 3,3-Dimethylpentanedioate), Bis(trifluoroacetate) Salt], the “% CA-SP1 Accumulation 100 nM SP1 V7A” value in the series on pNL4-3 SP1-V7A (100 nM compound) is 43.4 (3) %.

As for `C=C(C)[C@@H]1CC[C@]2(CCNCCN3CCN(Cc4ccccc4)CC3)CC[C@]3(C)[C@H](CC[C@@H]4[C@@]5(C)CC[C@H](OC(=O)CC(C)(C)C(=O)O)C(C)(C)[C@@H]5CC[C@]43C)[C@@H]12` [Compound 51hh, (3β)-17-[2-[[2-[4-(Phenylmethyl)piperazin-1-yl]ethyl]amino]ethyl]-28-norlup-20(29)-en-3-ol, 3-(1-Hydrogen 2,2-Dimethylbutanedioate)], the “% CA-SP1 Accumulation 10 nM SP1 V7A” value in the series on pNL4-3 SP1-V7A is 42.1 (5) %. In series [1], the cytotoxic concentration (CC50) at 4 days is more than 500 nM. For the same compound, in the series with HIV-1 clade C K3016, the “% Relative Infectivity K3016 10 nM” value was 48.6% and the “% Relative Infectivity K3016 100 nM” value is 32.3%. For the same compound, the half-maximal inhibitory concentration (IC50) in series [2] came out at 3.89 ± 0.18 nM.

(Values after patent US11236122B2, “Triterpene amine derivatives” (DFH THERAPEUTICS, priority 2018, dated 2022).)
